Consider 2 compounds from US10918623B2, “Methods of treating influenza” (Biotron Limited, priority 2017, dated 2021).

The subject of one data set is Influenza A (H1N1). The data set is classed as cell-based.
The next data set has as its system Influenza A (H3N2). The data set is classed as cell-based.
The test system of data set [1] is PR8 wild-type influenza A virus. Put plainly: microbe, parasite or virus in culture. The data set is classed as cell-based. The settings on record: PR8, MDCK.
For data set [2], the system named is SHIV-1SCVpu (ion channel sequence of HIV-1 Vpu). The data set is classed as cell-based.
A further data set concerns SHIV-1PND2. The data set is classed as cell-based.
The subject of a further data set is MDCK cells. The following applies: dog.
Data set [3] has as its target M2 viroporin of influenza A (Influenza A virus, UniProt P06821). The settings on record: cited from earlier work.
Another data set in a line: in vitro. The following applies: dog.
The subject of another data set is influenza. The following applies: human, in vivo; cited from earlier work.

Chain of M2 viroporin of influenza A (P06821 whole entry, looked up): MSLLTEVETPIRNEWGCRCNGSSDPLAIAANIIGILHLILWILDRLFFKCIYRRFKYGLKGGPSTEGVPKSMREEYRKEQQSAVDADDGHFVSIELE

In the case of `Cn1cc(-c2cccc3cc(C(=O)NC(=N)N)ccc23)cn1` [BIT225, N-carbamimidoyl-5-(1-methyl-1H-pyrazol-4-yl)-2-naphthamide], in the data set on Influenza A (H1N1), the Comments result was “Active”. Moreover, the Comments entry in the data set with Influenza A (H3N2) is recorded as “Active”. In data set [1], this compound displayed an EC50 of roughly 10 µM and a concentration for an effect of 90% (EC90) of 12 µM. Further, the “Virus released into the culture supernatant as measured by viral p27 protein” value in data set [2] is “reduced virus released”. In addition, in the data set on SHIV-1PND2, the Virus replication entry is reported as “does not significantly reduce virus replication”. The “Toxic effects (no toxic effects up to)” value with MDCK cells was greater than 100 µM. Also, the “Activity against the M2 viroporin of influenza A” value in [3] is “only limited activity”. Moreover, in the data set “in vitro”, the CC50 came out at 32 µM.
As for `CCOC(=O)C1=C[C@@H](OC(CC)CC)[C@H](NC(C)=O)[C@@H](N)C1` [oseltamivir], in the data set with influenza, the “Reduction of time to alleviation of symptoms of influenza” value was 16.8 h.
